This is an account of results in PubChem BioAssay (NCI).

Common to all, as to experiment: growth of human tumour cells (NCI), 48 h
The subject of test [1] is CCRF-CEM leukemia.
The test system of test [2] is RPMI-8226 leukemia.
The test system of test [3] is MOLT-4 leukemia.
Test [4] has as its system A498 renal.
Test [5] relates to HCT-116 colon.
For test [6], the system named is SR leukemia.
Test [7] deals with MDA-MB-231 breast.
The test system of test [8] is HL-60(TB) leukemia.
Test [9] relates to SW-620 colon.
The subject of test [10] is KM12 colon.
The test system of test [11] is TK-10 renal.
Test [12] deals with K-562 leukemia.
Test [13] has as its system UACC-257 melanoma.
For test [14], the system named is PC-3 prostate.
For test [15], the system named is SK-MEL-28 melanoma.
Test [16] deals with HCT-15 colon.
Test [17] has as its system EKVX NSCLC.
For test [18], the system named is CAKI-1 renal.
For test [19], the system named is HOP-92 NSCLC.

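Results reflect a 48-hour exposure of cells in 96-well plates to compound at five concentrations. The concentration for full growth arrest is given as TGI.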 Where a SMILES comes first, the peptide text is derived from it. The star is where a group is joined. Cbz = O=C(OCc1ccccc1)*; OBn = c1ccc(CO*)cc1 Some results are limits rather than exact numbers.

On to `COc1cc(Br)c(OC)c2c(OC)cc(C)cc12`, for which the TGI in test [1] is greater than 100 µM; in test [2], greater than 100 µM; in test [3] it was greater than 100 µM; in [4] it was greater than 100 µM; in test [5], greater than 100 µM; in test [6] it was 37.8 µM. Further, the TGI in [7], in test [8], in test [9], in test [10], in test [11] and in test [12] was greater than 100 µM each time. In addition, the TGI in test [13], in [14], in test [15] and in [16] was greater than 100 µM each time.

For the molecule `CC(C)OP(=O)(OC(C)C)C(C(C)C)N(C)/C(N)=N\C1=NC(C(F)(F)F)(C(F)(F)F)N=C(C(C(F)(F)F)C(F)(F)F)O1` (stereo not drawn), the TGI was found to be 4.88 µM in test [1]; 7.45 µM in [2]; 16.1 µM in test [17]; 11.2 µM in [18]; 4.78 µM in test [3]; 23.5 µM in test [4]. Further, the TGI was 6.6 µM in [5]; 14.2 µM in test [6]; 4.33 µM in test [7]; 4.16 µM in [8]; 5.48 µM in test [9]; 14 µM in test [10]. For the same molecule, the TGI in test [11] amounted to 13.6 µM; in test [12], 5.11 µM; in [13] it was 10.3 µM; in [14] it was 8.42 µM; in test [15] it was 12.4 µM.

`COC(=O)CNC(=O)C(C)NC(=O)C(CC(=O)OCc1ccccc1)NC(=O)OCc1ccccc1` (stereo not drawn) (Cbz-Asp(OBn)-Ala-Gly-OMe; configuration not given here): the TGI in test [2], in [18], in [3], in test [5], in test [19] and in [6] was greater than 100 µM each time. Further, the TGI in [7] was 46.9 µM; in test [9], greater than 100 µM; in [10] it was greater than 100 µM; in [11], greater than 100 µM; in test [12], greater than 100 µM; in test [13] it was greater than 100 µM. The TGI in test [14], in test [15] and in [16] was greater than 100 µM each time.

For the molecule `CN(C)c1ccc(-c2c(C#N)c(N)[nH]c(=S)c2C#N)cc1`, the TGI was greater than 100 µM in test [1]; greater than 100 µM in test [17]; greater than 100 µM in test [18]; 96.2 µM in test [4]; greater than 100 µM in test [5]; greater than 100 µM in test [19]. Also, the TGI in test [6], in test [7], in [8], in [9], in [11] and in test [12] was greater than 100 µM in each case. In addition, the TGI in test [13], in test [14], in [15] and in test [16] was greater than 100 µM each time.

As for `NCCCNCCCNCCCN`, the TGI was 41.1 µM in [2]; greater than 100 µM in [17]; greater than 100 µM in [18]; 42.4 µM in test [3]; greater than 100 µM in test [4]; greater than 100 µM in test [5]. Moreover, the TGI in [6] is 44.7 µM; in test [7], greater than 100 µM; in [8] it was greater than 100 µM; in test [9], greater than 100 µM; in test [10] it was greater than 100 µM; in [11], greater than 100 µM. The TGI in test [12] was 72.9 µM; in test [13] it was greater than 100 µM; in [14], greater than 100 µM; in test [15], greater than 100 µM; in [16], greater than 100 µM.

Turning to `C[C@H]1[C@H](C)N(Cc2ccccc2)P(=O)(C(O)/C=C/c2ccccc2)N1Cc1ccccc1` (stereo partly drawn), the TGI was 15.6 µM in test [2]; 24.9 µM in test [17]; greater than 25 µM in test [18]; greater than 25 µM in [3]; 10.3 µM in test [4]; 11.6 µM in test [5]. Also, the TGI in test [19] is 19.7 µM; in test [6], 20.5 µM; in test [7] it was 15.1 µM; in test [9], greater than 25 µM; in [10], greater than 25 µM; in test [11], 24.1 µM. In addition, the TGI in test [12] is greater than 25 µM; in test [13], 14.6 µM; in [14] it was 13 µM; in test [15] it was greater than 25 µM; in test [16] it was greater than 25 µM.

`C[C@@]12C=CC3C/C(=N\C(N)=S)C=C(CCCC4OCCO4)[C@]3(CC1)C2` (stereo partly drawn): the TGI is 50.8 µM in [2]; 40.6 µM in test [17]; 69.9 µM in [18]; 59.2 µM in test [3]; 33.1 µM in test [4]; 26.8 µM in test [5]. In addition, the TGI in [19] is greater than 100 µM; in test [6], 60.7 µM; in [7] it was 43.1 µM; in [9], 48.9 µM; in [10], greater than 100 µM; in [11], 49.4 µM. Besides, the TGI in test [12] was greater than 100 µM; in test [13] it was 40.7 µM; in [14] it was 50.7 µM; in test [15], 35 µM; in test [16], 53.6 µM.

For the molecule `CCOC(=O)c1ccc(C(=O)OCC)n1-c1cc2cc(c1)CSCc1cc(cc(-n3c(C(=O)OCC)ccc3C(=O)OCC)c1)CSC2`, the TGI in test [1], in test [2], in test [17], in test [18], in test [3] and in [5] was greater than 10 µM each time. In addition, the TGI in [19], in [6], in [7], in test [8], in test [9] and in [10] was greater than 10 µM throughout. Besides, the TGI in test [11], in test [12], in test [13], in test [14], in test [15] and in test [16] was greater than 10 µM each time.
